Measurements reported in ChEMBL document CHEMBL1212824, “A type-II kinase inhibitor capable of inhibiting the T315I "gatekeeper" mutant of Bcr-Abl” (J Med Chem, 2010).
Values belong to the molecule of their own block, whether it stands above or below them.

Assays:
[1] = cells; settings: Mus musculus, BaF3
[2] = cells; settings: Mus musculus, BaF3; remark: listed apart in the source
[3] = cells; settings: Mus musculus, BaF3; remark: listed apart in the source
[4] = cells; settings: Mus musculus, BaF3; remark: listed apart in the source
[5] = cells; settings: Mus musculus, BaF3; remark: listed apart in the source
[6] = cells; settings: Mus musculus, BaF3; remark: listed apart in the source
[7] = cells; settings: Mus musculus, BaF3; remark: listed apart in the source
[8] = target: Tyrosine-protein kinase Lck (Homo sapiens) (UniProt P06239); test: Inhibition of human Lck at 10 uM
Tyrosine-protein kinase Lck (Homo sapiens), sequence (P06239 2-509 limits assumed): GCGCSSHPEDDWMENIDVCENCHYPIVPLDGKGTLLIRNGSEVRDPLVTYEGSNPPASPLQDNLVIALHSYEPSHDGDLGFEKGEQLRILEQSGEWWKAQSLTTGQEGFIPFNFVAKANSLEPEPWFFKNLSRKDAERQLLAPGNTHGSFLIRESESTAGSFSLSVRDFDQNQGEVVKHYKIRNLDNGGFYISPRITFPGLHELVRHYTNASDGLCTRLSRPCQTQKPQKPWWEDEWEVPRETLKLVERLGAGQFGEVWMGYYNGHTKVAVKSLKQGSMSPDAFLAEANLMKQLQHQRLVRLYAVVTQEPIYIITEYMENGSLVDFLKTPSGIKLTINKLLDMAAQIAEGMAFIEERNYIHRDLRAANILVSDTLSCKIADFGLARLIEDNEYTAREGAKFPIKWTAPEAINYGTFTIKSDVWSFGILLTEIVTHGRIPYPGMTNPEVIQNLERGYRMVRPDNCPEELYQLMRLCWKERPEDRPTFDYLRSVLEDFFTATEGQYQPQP

[9] = target: Tyrosine-protein kinase CSK (Homo sapiens) (UniProt P41240); test: Inhibition of human CSK at 10 uM
[10] = target: Dual specificity mitogen-activated protein kinase kinase 6 (Homo sapiens) (UniProt P52564); test: Inhibition of human MKK6 at 10 uM
[11] = target: Casein kinase II (Homo sapiens) (UniProt P67870+P68400+P19784); test: Inhibition of human CK2 at 10 uM; assay type: protein-complex assay
[12] = tested on: COLO 205; test: cells; settings: Homo sapiens
[13] = organism: Mus musculus; settings: in vivo, po, 20 mg/kg
[14] = target: Serine/threonine-protein kinase D2 (Homo sapiens) (UniProt Q9BZL6); test: Inhibition of human PKD2 at 10 uM
[15] = target: Serine/threonine-protein kinase Sgk1 (Homo sapiens) (UniProt O00141); test: Inhibition of human SGK at 10 uM
[16] = target: Aurora kinase A (Homo sapiens) (UniProt O14965); test: Inhibition of human Aurora A at 10 uM
[17] = target: Mitogen-activated protein kinase 8 (Homo sapiens) (UniProt P45983); test: Inhibition of human JNK1alpha1 at 10 uM
[18] = target: Mitogen-activated protein kinase 14 (Homo sapiens) (UniProt Q16539); test: Inhibition of human SAPK2a at 10 uM
[19] = target: Protein kinase C theta type (Homo sapiens) (UniProt Q04759); test: Inhibition of human PKCtheta at 10 uM
Protein kinase C theta type (Homo sapiens), sequence (Q04759 whole entry, looked up): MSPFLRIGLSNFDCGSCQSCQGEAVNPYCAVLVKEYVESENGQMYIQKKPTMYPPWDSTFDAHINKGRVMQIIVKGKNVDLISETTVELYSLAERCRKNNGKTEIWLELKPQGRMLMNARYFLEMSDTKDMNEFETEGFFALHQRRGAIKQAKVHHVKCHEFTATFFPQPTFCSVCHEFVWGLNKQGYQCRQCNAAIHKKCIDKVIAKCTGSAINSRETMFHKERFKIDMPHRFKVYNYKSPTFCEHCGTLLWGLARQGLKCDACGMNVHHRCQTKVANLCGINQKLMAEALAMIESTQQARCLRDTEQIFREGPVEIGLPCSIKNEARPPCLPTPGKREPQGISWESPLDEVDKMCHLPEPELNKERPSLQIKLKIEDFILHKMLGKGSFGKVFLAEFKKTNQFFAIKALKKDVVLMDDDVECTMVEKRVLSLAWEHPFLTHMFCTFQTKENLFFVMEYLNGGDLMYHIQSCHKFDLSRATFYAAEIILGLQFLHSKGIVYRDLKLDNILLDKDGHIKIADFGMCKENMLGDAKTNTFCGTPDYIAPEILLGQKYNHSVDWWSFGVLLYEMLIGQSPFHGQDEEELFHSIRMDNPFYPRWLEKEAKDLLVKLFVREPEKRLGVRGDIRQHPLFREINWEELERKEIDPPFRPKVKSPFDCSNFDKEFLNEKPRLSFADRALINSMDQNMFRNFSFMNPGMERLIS

[20] = target: Protein kinase C alpha type (Homo sapiens) (UniProt P17252); test: Inhibition of human PKCalpha at 10 uM
[21] = target: Tyrosine-protein kinase Fes/Fps (Homo sapiens) (UniProt P07332); test: Inhibition of human Fes at 10 uM
[22] = target: BDNF/NT-3 growth factors receptor (Homo sapiens) (UniProt Q16620); test: Inhibition of human TrkB at 10 uM
[23] = target: Serine/threonine-protein kinase Chk2 (Homo sapiens) (UniProt O96017); test: Inhibition of human CHK2 at 10 uM
Serine/threonine-protein kinase Chk2 (Homo sapiens), sequence (O96017 whole entry): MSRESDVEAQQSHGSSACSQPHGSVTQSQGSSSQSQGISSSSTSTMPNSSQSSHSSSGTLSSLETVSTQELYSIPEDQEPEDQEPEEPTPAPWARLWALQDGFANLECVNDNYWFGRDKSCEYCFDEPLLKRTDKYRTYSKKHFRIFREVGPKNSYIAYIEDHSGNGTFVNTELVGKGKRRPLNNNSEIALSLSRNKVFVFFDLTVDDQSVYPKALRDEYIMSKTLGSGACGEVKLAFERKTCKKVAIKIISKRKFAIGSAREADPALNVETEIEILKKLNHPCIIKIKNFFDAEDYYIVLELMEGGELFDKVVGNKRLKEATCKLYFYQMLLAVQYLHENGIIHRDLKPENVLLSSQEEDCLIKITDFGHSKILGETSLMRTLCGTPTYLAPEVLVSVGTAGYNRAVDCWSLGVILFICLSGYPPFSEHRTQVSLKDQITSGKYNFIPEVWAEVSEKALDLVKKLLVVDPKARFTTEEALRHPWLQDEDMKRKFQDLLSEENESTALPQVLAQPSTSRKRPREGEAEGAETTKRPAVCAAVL

[24] = target: Inhibitor of nuclear factor kappa-B kinase subunit alpha (Homo sapiens) (UniProt O15111); test: Inhibition of human IKKalpha at 10 uM
[25] = target: Tyrosine-protein kinase receptor UFO (Homo sapiens) (UniProt P30530); test: Inhibition of human Axl at 10 uM
[26] = tested on: Mus musculus; test: Tlast in BALB/c mouse at 5 mg/kg, iv; assay type: ADME, organism-based; design: dose 5 mg/kg, route intravenous; settings: in vivo
[27] = target: Cyclin-dependent kinase 1/cyclin B1 (Homo sapiens) (UniProt P06493+P14635); test: Inhibition of human CDK1/cyclinB at 10 uM; assay type: protein-complex assay
[28] = cells; settings: Homo sapiens, U-87 MG
[29] = organism: Homo sapiens; settings: 10 uM
[30] = target: Insulin receptor (Homo sapiens) (UniProt P06213); test: Inhibition of human IR at 10 uM
[31] = target: Receptor-type tyrosine-protein kinase FLT3 (Homo sapiens) (UniProt P36888); test: Inhibition of human Flt3 at 10 uM
[32] = tested on: Mus musculus; test: Tlast in BALB/c mouse at 20 mg/kg, po; assay type: ADME, organism-based; design: dose 20 mg/kg, route oral; settings: in vivo
[33] = target: MAP kinase-activated protein kinase 2 (Homo sapiens) (UniProt P49137); test: Inhibition of human MAPKAP-K2 at 10 uM
[34] = target: Platelet-derived growth factor receptor alpha (Homo sapiens) (UniProt P16234); test: Inhibition of human PDGFRalpha at 10 uM
[35] = target: RAF proto-oncogene serine/threonine-protein kinase (Homo sapiens) (UniProt P04049); test: Inhibition of human c-RAF at 10 uM
[36] = target: Serine/threonine-protein kinase PAK 2 (Homo sapiens) (UniProt Q13177); test: Inhibition of human PAK2 at 10 uM
[37] = Tmax in BALB/c mouse at 5 mg/kg, iv; assay type: ADME, organism-based; design: dose 5 mg/kg, route intravenous; settings: in vivo
[38] = target: Calcium/calmodulin-dependent protein kinase type IV (Homo sapiens) (UniProt Q16566); test: Inhibition of human CaMK4 at 10 uM
[39] = target: Mitogen-activated protein kinase 1 (Homo sapiens) (UniProt P28482); test: Inhibition of human MAPK1 at 10 uM
Mitogen-activated protein kinase 1 (Homo sapiens), sequence (P28482 whole entry): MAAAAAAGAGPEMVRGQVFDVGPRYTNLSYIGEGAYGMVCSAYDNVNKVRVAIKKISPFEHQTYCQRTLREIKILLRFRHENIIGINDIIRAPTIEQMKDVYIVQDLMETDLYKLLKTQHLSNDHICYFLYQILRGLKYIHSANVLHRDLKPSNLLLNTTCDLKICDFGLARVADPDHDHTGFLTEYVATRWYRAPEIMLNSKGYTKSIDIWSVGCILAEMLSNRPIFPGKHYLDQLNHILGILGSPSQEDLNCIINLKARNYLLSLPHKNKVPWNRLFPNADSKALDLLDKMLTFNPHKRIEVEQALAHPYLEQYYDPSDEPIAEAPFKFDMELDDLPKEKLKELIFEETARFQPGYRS

[40] = in vivo; settings: BALB/c, mouse, iv, 5 mg/kg
[41] = target: Rho-associated protein kinase 2 (Homo sapiens) (UniProt O75116); test: Inhibition of human ROCK-2 at 10 uM
[42] = target: Mitogen-activated protein kinase 9 (Homo sapiens) (UniProt P45984); test: Inhibition of human JNK2alpha2 at 10 uM
[43] = cells; settings: Homo sapiens, HEK-293T
[44] = in vivo; settings: BALB/c, mouse, iv, 5 mg/kg; remark: listed apart in the source
[45] = target: RAC-alpha serine/threonine-protein kinase (Homo sapiens) (UniProt P31749); test: Inhibition of human PKBalpha at 10 uM
RAC-alpha serine/threonine-protein kinase (Homo sapiens), sequence (P31749 whole entry): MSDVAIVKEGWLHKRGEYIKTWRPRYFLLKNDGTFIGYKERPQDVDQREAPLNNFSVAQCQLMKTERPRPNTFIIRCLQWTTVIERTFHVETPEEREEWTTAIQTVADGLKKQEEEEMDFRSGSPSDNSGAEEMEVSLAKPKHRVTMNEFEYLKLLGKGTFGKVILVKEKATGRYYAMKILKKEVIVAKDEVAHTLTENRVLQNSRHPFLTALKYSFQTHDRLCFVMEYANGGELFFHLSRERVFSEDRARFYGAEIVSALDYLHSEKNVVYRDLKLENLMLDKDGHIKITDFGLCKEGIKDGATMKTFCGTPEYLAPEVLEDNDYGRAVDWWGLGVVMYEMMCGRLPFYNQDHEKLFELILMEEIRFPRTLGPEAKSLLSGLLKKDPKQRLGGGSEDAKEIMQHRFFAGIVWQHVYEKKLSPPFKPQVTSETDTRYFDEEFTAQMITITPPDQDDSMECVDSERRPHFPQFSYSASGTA

[46] = target: Mitogen-activated protein kinase 12 (Homo sapiens) (UniProt P53778); test: Inhibition of human SAPK3 at 10 uM
[47] = target: Tyrosine-protein kinase SYK (Homo sapiens) (UniProt P43405); test: Inhibition of human Syk at 10 uM
[48] = target: Ribosomal protein S6 kinase beta-1 (Homo sapiens) (UniProt P23443); test: Inhibition of human p70S6K at 10 uM
Ribosomal protein S6 kinase beta-1 (Homo sapiens), sequence (P23443 whole entry, looked up): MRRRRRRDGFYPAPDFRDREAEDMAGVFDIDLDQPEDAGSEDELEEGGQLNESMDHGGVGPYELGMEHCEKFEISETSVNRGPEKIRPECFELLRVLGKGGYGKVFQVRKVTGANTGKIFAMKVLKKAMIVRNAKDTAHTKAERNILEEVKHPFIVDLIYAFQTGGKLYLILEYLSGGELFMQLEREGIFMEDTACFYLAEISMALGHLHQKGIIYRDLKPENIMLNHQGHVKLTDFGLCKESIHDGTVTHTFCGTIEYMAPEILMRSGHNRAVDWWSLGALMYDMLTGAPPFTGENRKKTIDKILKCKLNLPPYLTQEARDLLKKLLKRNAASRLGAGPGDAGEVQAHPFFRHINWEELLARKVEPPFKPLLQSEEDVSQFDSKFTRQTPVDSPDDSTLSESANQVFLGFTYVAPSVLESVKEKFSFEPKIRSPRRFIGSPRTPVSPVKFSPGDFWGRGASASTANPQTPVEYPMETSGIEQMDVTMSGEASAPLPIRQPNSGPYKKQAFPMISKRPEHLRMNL

[49] = tested on: SW-620; test: cells; settings: Homo sapiens
[50] = target: Fibroblast growth factor receptor 3 (Homo sapiens) (UniProt P22607); test: Inhibition of human FGFR3 at 10 uM
[51] = organism: Mus musculus; settings: 10 uM
[52] = target: Cytoplasmic tyrosine-protein kinase BMX (Homo sapiens) (UniProt P51813); test: Inhibition of human Bmx at 10 uM
[53] = target: Mitogen-activated protein kinase 11 (Homo sapiens) (UniProt Q15759); test: Inhibition of human SAPK2b at 10 uM
[54] = in vivo; settings: BALB/c, mouse, iv, 5 mg/kg; remark: listed apart in the source
[55] = target: 3-phosphoinositide-dependent protein kinase 1 (Homo sapiens) (UniProt O15530); test: Inhibition of human PDK1 at 10 uM
3-phosphoinositide-dependent protein kinase 1 (Homo sapiens), sequence (O15530 whole entry, looked up): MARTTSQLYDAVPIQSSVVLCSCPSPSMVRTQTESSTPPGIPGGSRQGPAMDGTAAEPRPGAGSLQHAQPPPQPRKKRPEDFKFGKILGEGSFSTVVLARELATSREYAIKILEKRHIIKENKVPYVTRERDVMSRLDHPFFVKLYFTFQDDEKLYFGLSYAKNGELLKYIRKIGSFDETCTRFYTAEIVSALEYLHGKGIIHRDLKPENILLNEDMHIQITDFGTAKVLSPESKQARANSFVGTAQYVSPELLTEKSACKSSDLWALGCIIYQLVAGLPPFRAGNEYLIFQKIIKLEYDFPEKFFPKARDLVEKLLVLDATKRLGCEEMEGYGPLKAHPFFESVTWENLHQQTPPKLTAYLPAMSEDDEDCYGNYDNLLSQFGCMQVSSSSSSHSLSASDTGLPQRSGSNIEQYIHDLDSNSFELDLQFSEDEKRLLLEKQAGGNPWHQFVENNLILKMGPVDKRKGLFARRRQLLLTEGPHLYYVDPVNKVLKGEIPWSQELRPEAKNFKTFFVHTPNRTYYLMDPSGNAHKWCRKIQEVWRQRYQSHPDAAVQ

[56] = target: Ribosomal protein S6 kinase alpha-1 (Homo sapiens) (UniProt Q15418); test: Inhibition of human Rsk1 at 10 uM
[57] = target: Glycogen synthase kinase-3 (Homo sapiens) (UniProt P49840+P49841); test: Inhibition of human GSK3ss at 10 uM; assay type: protein assay
Glycogen synthase kinase-3 (Homo sapiens), sequence (P49840 whole entry, looked up): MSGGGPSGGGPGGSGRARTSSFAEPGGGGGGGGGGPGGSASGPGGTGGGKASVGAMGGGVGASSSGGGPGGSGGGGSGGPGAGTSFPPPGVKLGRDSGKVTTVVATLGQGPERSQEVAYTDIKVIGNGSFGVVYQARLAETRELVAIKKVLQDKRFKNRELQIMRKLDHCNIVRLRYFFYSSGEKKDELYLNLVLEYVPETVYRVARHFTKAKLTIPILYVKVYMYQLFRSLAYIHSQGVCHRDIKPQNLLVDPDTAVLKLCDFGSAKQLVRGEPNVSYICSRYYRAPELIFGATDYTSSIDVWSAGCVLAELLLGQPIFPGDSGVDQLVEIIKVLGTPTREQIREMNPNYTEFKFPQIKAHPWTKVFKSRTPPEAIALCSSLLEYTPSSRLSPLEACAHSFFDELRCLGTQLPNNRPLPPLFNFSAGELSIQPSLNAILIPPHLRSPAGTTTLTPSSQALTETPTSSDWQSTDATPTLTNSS
Glycogen synthase kinase-3 (Homo sapiens), sequence (P49841 whole entry, looked up): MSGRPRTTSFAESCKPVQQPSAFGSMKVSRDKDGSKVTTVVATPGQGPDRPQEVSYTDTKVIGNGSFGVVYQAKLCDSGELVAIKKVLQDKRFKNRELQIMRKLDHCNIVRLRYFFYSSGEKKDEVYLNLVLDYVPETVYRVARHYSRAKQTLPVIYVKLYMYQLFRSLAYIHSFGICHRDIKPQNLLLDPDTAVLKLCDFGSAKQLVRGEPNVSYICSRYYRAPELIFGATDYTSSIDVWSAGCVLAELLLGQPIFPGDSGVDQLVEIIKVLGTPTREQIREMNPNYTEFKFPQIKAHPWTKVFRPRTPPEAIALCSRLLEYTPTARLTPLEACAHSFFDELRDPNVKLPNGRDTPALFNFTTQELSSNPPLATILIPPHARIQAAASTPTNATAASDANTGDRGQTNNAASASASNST

[58] = target: Dual specificity mitogen-activated protein kinase kinase 1 (Homo sapiens) (UniProt Q02750); test: Inhibition of human MEK1 at 10 uM
Dual specificity mitogen-activated protein kinase kinase 1 (Homo sapiens), sequence (Q02750 whole entry): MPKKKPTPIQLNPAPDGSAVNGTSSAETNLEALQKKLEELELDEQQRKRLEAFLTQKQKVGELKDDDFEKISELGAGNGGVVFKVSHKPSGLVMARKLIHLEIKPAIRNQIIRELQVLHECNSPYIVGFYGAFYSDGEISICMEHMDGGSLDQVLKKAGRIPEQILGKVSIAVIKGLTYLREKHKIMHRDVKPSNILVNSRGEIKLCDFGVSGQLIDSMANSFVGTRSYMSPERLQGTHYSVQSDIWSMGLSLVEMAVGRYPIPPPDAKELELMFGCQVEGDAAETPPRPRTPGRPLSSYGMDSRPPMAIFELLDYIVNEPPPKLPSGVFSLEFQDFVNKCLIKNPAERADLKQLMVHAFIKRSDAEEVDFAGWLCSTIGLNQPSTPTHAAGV

[59] = target: Tyrosine-protein kinase ZAP-70 (Homo sapiens) (UniProt P43403); test: Inhibition of human ZAP-70 at 10 uM
[60] = cells; settings: Mus musculus, BaF3; remark: listed apart in the source

- IC50 [1]: < 5 nM
- IC50 [2]: 15 nM
- IC50 [3]: < 5 nM
- IC50 [4]: 16 nM
- IC50 [5]: < 5 nM
- IC50 [6]: 13 nM
- IC50 [7]: < 5 nM
Structure (SMILES): CNc1ncc2c(n1)N(C)C(=O)N(c1cc(NC(=O)c3cc(-n4cnc(C)c4)cc(C(F)(F)F)c3)ccc1C)C2

- IC50 [1]: < 5 nM
- IC50 [2]: < 5 nM
- IC50 [3]: < 5 nM
- IC50 [4]: 19 nM
Structure (SMILES): Cc1ccc(NC(=O)c2cccc(C(F)(F)F)c2)cc1N1Cc2cnc(Nc3ccccc3)nc2N(C)C1=O

- inhibition [8]: 99%
- inhibition [9]: 100%
- inhibition [10]: 100%
- inhibition [11]: 6%
- IC50 [12]: 5 nM
- Cmax [13]: 3.62 µM
- inhibition [14]: 77%
- inhibition [15]: 0%
- inhibition [16]: 31%
- inhibition [17]: 97%
- inhibition [18]: 95%
- inhibition [19]: 22%
- inhibition [20]: 51%
- inhibition [21]: 98%
- inhibition [22]: 100%
- inhibition [23]: 12%
- inhibition [24]: 69%
- inhibition [25]: 69%
- Tlast [26]: 24 h
- inhibition [27]: 3%
- IC50 [28]: 5960 nM
- inhibition [29]: 49%
- inhibition [30]: 89%
- inhibition [31]: 69%
- Tlast [32]: 24 h
- inhibition [33]: 0%
- inhibition [34]: 62%
- inhibition [35]: 100%
- inhibition [36]: 45%
- Tmax [37]: 1.8 min
- inhibition [38]: 0%
- inhibition [39]: 68%
- half-life [40]: 3.8 h
- inhibition [41]: 2%
- inhibition [42]: 99%
- IC50 [43]: > 10000 nM
- Cmax [44]: 11.7 µM
- inhibition [45]: 7%
- inhibition [46]: 35%
- inhibition [47]: 98%
- inhibition [48]: 92%
- IC50 [49]: 1 nM
- inhibition [50]: 100%
- inhibition [51]: 98%
- inhibition [52]: 98%
- inhibition [53]: 98%
- Vd [54]: 1.12 L/kg
- inhibition [55]: 0%
- inhibition [56]: 95%
- inhibition [57]: 59%
- inhibition [58]: 58%
- inhibition [59]: 6%
Structure (SMILES): Cc1ccc(Nc2ncc3c(n2)N(C)C(=O)N(c2cc(NC(=O)c4cccc(C(F)(F)F)c4)ccc2C)C3)cn1

- IC50 [1]: < 5 nM
- IC50 [2]: < 5 nM
- IC50 [60]: < 5 nM
- IC50 [3]: < 5 nM
- IC50 [4]: < 5 nM
- IC50 [6]: < 5 nM
- IC50 [7]: < 5 nM
Structure (SMILES): Cc1ccc(NC(=O)c2cccc(C(F)(F)F)c2)cc1N1Cc2cnc(N)nc2N(C)C1=O
